# Reference: publication PMC12998938, “Neutrophil store-operated Ca^2+ entry: A correctable biomarker of cystic fibrosis lung disease progression” (Journal of cystic fibrosis : official journal of the …, 2025)
# How the values were obtained:
# [1] = tested on: Orai1; conditions: cartoon legend; reference not given; cited from earlier work
# Source text: Fig. 6. Cartoon of SOCE in neutrophils in the absence (left) and presence (right) of ELD607. Left, activation of Gq-linked GPCRs by appropriate agonists (e.g. ATP) leads to formation of inositol triphosphate (IP3) and ER store Ca^2+ depletion. This in turn causes STIM1 to rapidly aggregate at ER-plasma membrane junctions where it causes Orai1 to activate and aggregate to provide a second, amplifying wave of Ca^2+ which triggers neutrophil degranulation, as well as activating other Ca^2+-dependent processes (not shown). Right, ELD607 binds to Orai1, causing it to be ubiquitinated, internalized ...
# [2] = tested on: SOCE/Orai1 in non-CF peripheral blood neutrophils; assay: Fluo-4 Ca2+ assay, global thapsigargin-stimulated Ca2+ response (SOCE), non-CF neutrophils; format: cell-based, human; conditions: 10 μM peptide, 3 h pre-treatment, 1 μM thapsigargin, N = 10 donors
# Protocol: (§1) Neutrophils were immediately isolated by negative selection from deidentified blood samples using an EasySep human neutrophil isolation kit (Stem Cell Technologies) as described. Cytosolic Ca^2+ was measured using Fluo-4 as described. Protein lysate from isolated blood neutrophils was characterized by liquid chromatography with tandem mass spectrometry (LC-MS/MS) as described. Degranulation products in media were quantified by Luminex assay using a custom Bio-Plex human kit (BioRad) per the manufacturer’s protocol […]. Detailed methods for all experiments and measurements are provided in an online data supplement.
# Isolated neutrophils were incubated with peptide or vehicle control for 3 h. For the final hour of treatment, cells were loaded with Fluo-4 direct (Thermofisher) for 45 min at 37°C and 15 min at room temperature as described.
# Fluo-4 Ca^2+ assays. Isolated neutrophils were incubated with peptide or vehicle control for 3 h. For the final hour of treatment, cells were loaded with Fluo-4 direct (Thermofisher) for 45 min at 37°C and 15 min at room temperature. For global Ca^2+ measurements, baseline fluorescent readings were made for 2 min (1 read every 30 s) using a Tecan Infinite M1000 plate reader (ex 494 em 516 nm, bandwidth 5 nm) before thapsigargin (Sigma-Aldrich) was added and the change in emission was recorded for 10 min (1 read every 30 s). To isolate phases of store operated Ca^2+ entry, cells underwent 3 rounds of centrifugation and resuspension in Ca^2+-free Ringer’s solution to remove extracellular Ca^2+. Baseline fluo-4 fluorescence was read for 2 min before cell were stimulated with thapsigargin (Tocris). Reads continued for ~5 min before 1.2 mM Ca^2+ was added to the extracellular solution and SOCE was measured for ~10 mins. For analysis, all fluo-4 fluorescence reads are normalized to baseline.
# [3] = tested on: Pseudomonas aeruginosa-infected mice; conditions: ref [21], cited from earlier work
# [4] = tested on: HEK293T Orai1, Orai2 and Orai3 triple knockout cells; assay: SOCE in Orai1/2/3 triple knockout HEK293T cells; format: cell-based; conditions: thapsigargin, 7-9 replicates, 3 experiments
# Source text: (§2) We hypothesized that inhibiting SOCE in CF neutrophils may reduce the secretion of neutrophil elastase and other proteins associated with CF lung disease. To validate ELD607’s specificity for Orai1 over Orai2 and Orai3, we first evaluated ELD607 function in HEK293T cells that had Orai1, Orai2 and Orai3 stably knocked out. […] Next we evaluated ELD607’s ability to inhibit SOCE in non-CF and CF neutrophils.
# (§3) Supplemental figure 3. […] Dose responses of thapsigargin-induced changes in cytoplasmic Ca^2+ concentrations. These studies were performed in HEK293T where Orai1, Orai2 and Orai3 had been stably knocked down (triple knockout cells, TKO) or in TKO cells that were transiently transfected with Orai1, Orai2 or Orai3 as indicated. All data are from 7-9 replicates per data point from 3 separate experiments.
# [5] = tested on: neutrophil elastase; conditions: cited from earlier work
# [6] = tested on: CF neutrophils; assay: Neutrophil degranulation multiplex assay, CF neutrophils; format: cell-based, human; conditions: 3 h, 1 μM thapsigargin 30 min, vs vehicle, paired t-test
# Protocol: as §1
# (§4) Multiple neutrophil functions, including neutrophil degranulation, are Ca^2+ dependent. Neutrophil degranulation results in an increase in several proteases in the lung, including neutrophil elastase, a key driver of CF lung damage. Accordingly, we investigated the impact of ELD607 on neutrophil degranulation as a marker of Ca^2+-dependent neutrophilic function. We used a multiplex assay to quantify key granule proteins released into media after a 3 h pretreatment with 10 μM ELD607 or vehicle control followed by a 30 min stimulation with 1 μM thapsigargin. Levels of myeloperoxidase (MPO; primary granules), lactoferrin (specific granules) and matrix metalloproteinase-9 (MMP9; tertiary granules) release were similar between non-CF and CF neutrophils (Fig. 4A–C).
# (§5) Fig. 4. ELD607 inhibits degranulation in non-CF and CF neutrophils. Neutrophil degranulation (A-C) was assayed by measuring the concentration of representative constituents of (A) primary granules, MPO (non-CF, n = 9; CF, n = 13); (B) secondary granules, lactoferrin (non-CF, n = 12; CF, n = 17) and (C) tertiary granules, MMP-9 (non-CF, n = 9; CF, n = 12). […]
# (§6) Multiplex assay. […] Supernatant was collected and analyzed for a panel of neutrophil granule proteins (MPO, lactoferrin, MMP9) using a Bio-Plex human kit (BioRad) per the manufacturer’s protocol. Plates were then analyzed using a Bio-Plex MAGPIX System (BioRad).
# [7] = tested on: non-CF neutrophils; assay: Neutrophil degranulation multiplex assay, non-CF neutrophils; format: cell-based, human; conditions: 3 h, 1 μM thapsigargin 30 min, vs vehicle, paired t-test
# Protocol: as §1, §4, §5, §6
# [8] = tested on: Orai3; assay: SOCE in triple knockout HEK293T cells transfected with Orai3; format: cell-based
# Source text: as §2, §3
sequence,measurement,setting,value
"VHDIVNMLIRG [ELD607, size-optimized SPLUNC1/α6 peptidomimetic]",effect on Orai1,[1],"binds to Orai1, causing it to be ubiquitinated, internalized and degraded"
same,inhibition of SOCE (global Ca2+ response),[2],significantly inhibited SOCE regardless of genotype
same,neutrophilia and neutrophil elastase release,[3]; P. aeruginosa-infected mice,reduces neutrophilia and neutrophil elastase release
same,neutrophil influx into the lungs,"[3]; mice, P. aeruginosa, reduced lung injury, increased survival",reduces neutrophil influx into the lungs of mice
same,effect on SOCE,[4],no effect on SOCE
same,stability in neutrophil elastase,[5],protease-resistant and stable in CF patient-derived neutrophil elastase
same,MMP9 release (tertiary granules),"[6]; n = 12, 10 μM",significantly reduced
same,MPO release (primary granules),"[6]; n = 13, 10 μM",significantly reduced
same,lactoferrin release (specific/secondary granules),"[6]; n = 17, 10 μM",significantly reduced
same,MMP9 release (tertiary granules),"[7]; n = 9, 10 μM",significantly reduced
same,MPO release (primary granules),"[7]; n = 9, 10 μM",significantly reduced
same,lactoferrin release (specific/secondary granules),"[7]; n = 12, 10 μM",significantly reduced
same,sensitivity of SOCE to ELD607,"[8]; TKO + Orai3, thapsigargin, dose response, 7-9 replicates",relatively insensitive
same,specificity for Orai1: effect on Orai3,[8]; discussion summary of supplemental figure 3,little effect on Orai2 and Orai3
